Literature values, collected in US20160007613A1, “Clonostachys rosea Inoculated Plant Materials with Fungicides and Adjuvants” (priority 2014, published 2016).

Test system: Clonostachys rosea ACM941
Details: research by Sutton and Brown; in words

Row | Structure (SMILES) | toxicity to Clonostachys rosea ACM941
1 | COCC(=O)N(c1c(C)cccc1C)C(C)C(=O)OC (centres unmarked) [metalaxyl] | not metalaxyl is toxic
2 | CN(C)C(=S)SSC(=S)N(C)C [thiram] | toxic
